Assay: Study 202: fasting metabolic laboratory parameters
Assay type: in vivo
Settings: for Fasting HDL, mean change from baseline / Fasting LDL, mean change from baseline / Fasting total cholesterol, mean change from baseline / Fasting total cholesterol/HDL ratio, mean change from baseline / Fasting triglycerides, mean change from baseline / HOMA-IR, mean change from baseline / HbA1c, mean change from baseline: EFV
Text: All abnormalities in total cholesterol, LDL cholesterol, triglycerides, or glucose were Grade 1 or Grade 2.
Mean baseline values and changes from baseline in HbA1c, HOMA-IR, fasting LDL, fasting HDL, fasting total cholesterol, fasting total cholesterol/HDL ratio, and fasting triglycerides are shown in Table 36.

[1] = All CVC (N = 115), EFV (N = 28), through Week 48

Question: For `O=C1Nc2ccc(Cl)cc2[C@@](C#CC2CC2)(C(F)(F)F)O1` [EFV, efavirenz, reference compound], which “Any graded (Grade 1-4) fasting laboratory abnormality, n subjects” value [1] is on record?
Answer: The value was 9.

Question: What about the “Fasting LDL cholesterol abnormality, any grade, n subjects” value [1] of the same compound?
Answer: Its value is 6.

Question: And the “Fasting LDL cholesterol, worst Grade 1, n subjects” value [1]?
Answer: Its value is 3.

Question: And the “Fasting LDL cholesterol, worst Grade 2, n subjects” value [1]?
Answer: The value was 3.

Question: And the “Fasting LDL cholesterol, worst Grade 3, n subjects” value [1]?
Answer: The value was 0.

Question: And the “Fasting LDL cholesterol, worst Grade 4, n subjects” value [1]?
Answer: The value was 0.

Question: What about the “Fasting glucose (serum, high) abnormality, any grade, n subjects” value [1] of the same compound?
Answer: Its value is 2.

Question: What about the “Fasting glucose (serum, high), worst Grade 1, n subjects” value [1] of the same compound?
Answer: The value was 2.

Question: What about the “Fasting glucose (serum, high), worst Grade 2, n subjects” value [1] of the same compound?
Answer: Its value is 0.

Question: And the “Fasting glucose (serum, high), worst Grade 3, n subjects” value [1]?
Answer: The value was 0.

Question: What about the “Fasting glucose (serum, high), worst Grade 4, n subjects” value [1] of the same compound?
Answer: The value was 0.

Question: What about the “Fasting laboratory abnormality, worst Grade 1, n subjects” value [1] of the same compound?
Answer: The value was 6.

Question: And the “Fasting laboratory abnormality, worst Grade 2, n subjects” value [1]?
Answer: Its value is 3.

Question: What about the “Fasting laboratory abnormality, worst Grade 3, n subjects” value [1] of the same compound?
Answer: Its value is 0.

Question: And the “Fasting laboratory abnormality, worst Grade 4, n subjects” value [1]?
Answer: Its value is 0.

Question: What about the “Fasting total cholesterol abnormality, any grade, n subjects” value [1] of the same compound?
Answer: Its value is 9.

Question: And the “Fasting total cholesterol, worst Grade 1, n subjects” value [1]?
Answer: Its value is 6.

Question: And the “Fasting total cholesterol, worst Grade 2, n subjects” value [1]?
Answer: The value was 3.

Question: What about the “Fasting total cholesterol, worst Grade 3, n subjects” value [1] of the same compound?
Answer: Its value is 0.

Question: What about the “Fasting total cholesterol, worst Grade 4, n subjects” value [1] of the same compound?
Answer: The value was 0.

Question: What about the “Fasting triglycerides abnormality, any grade, n subjects” value [1] of the same compound?
Answer: Its value is 0.

Question: And the “Fasting triglycerides, worst Grade 1, n subjects” value [1]?
Answer: Its value is 0.

Question: What about the “Fasting triglycerides, worst Grade 2, n subjects” value [1] of the same compound?
Answer: The value was 0.

Question: And the “Fasting triglycerides, worst Grade 3, n subjects” value [1]?
Answer: Its value is 0.

Question: What about the “Fasting triglycerides, worst Grade 4, n subjects” value [1] of the same compound?
Answer: The value was 0.

Question: What about the “Fasting HDL, mean change from baseline” value (Week 4, All CVC) of the same compound?
Answer: The value was 5.90 mg/dL.

Question: What about the “Fasting LDL, mean change from baseline” value (Week 4, All CVC) of the same compound?
Answer: Its value is 8.62 mg/dL.

Question: What about the “Fasting total cholesterol, mean change from baseline” value (Week 4, All CVC) of the same compound?
Answer: The value was 19 mg/dL.

Question: And the “Fasting total cholesterol/HDL ratio, mean change from baseline” value (Week 4, All CVC)?
Answer: The value was −0.07.

Question: And the “Fasting triglycerides, mean change from baseline” value (Week 4, All CVC)?
Answer: Its value is 23 mg/dL.

Question: And the “HOMA-IR, mean change from baseline” value (Week 4, All CVC)?
Answer: Its value is 0.30.

Question: And the “HbA1c, mean change from baseline” value (Week 4, All CVC)?
Answer: Its value is −0.01 % Hb.

Question: What about the “Fasting HDL, mean change from baseline” value (Week 12, All CVC) of the same compound?
Answer: Its value is 9.45 mg/dL.

Question: What about the “Fasting LDL, mean change from baseline” value (Week 12, All CVC) of the same compound?
Answer: Its value is 7.59 mg/dL.

Question: And the “Fasting total cholesterol, mean change from baseline” value (Week 12, All CVC)?
Answer: Its value is 18 mg/dL.

Question: What about the “Fasting total cholesterol/HDL ratio, mean change from baseline” value (Week 12, All CVC) of the same compound?
Answer: The value was −0.41.

Question: And the “Fasting triglycerides, mean change from baseline” value (Week 12, All CVC)?
Answer: The value was 3 mg/dL.

Question: And the “HOMA-IR, mean change from baseline” value (Week 12, All CVC)?
Answer: Its value is 0.06.

Question: And the “HbA1c, mean change from baseline” value (Week 12, All CVC)?
Answer: Its value is −0.07 % Hb.

Question: What about the “Fasting HDL, mean change from baseline” value (Week 24, All CVC) of the same compound?
Answer: The value was 12.75 mg/dL.

Question: And the “Fasting LDL, mean change from baseline” value (Week 24, All CVC)?
Answer: Its value is 13.40 mg/dL.

Question: And the “Fasting total cholesterol, mean change from baseline” value (Week 24, All CVC)?
Answer: The value was 24 mg/dL.

Question: And the “Fasting total cholesterol/HDL ratio, mean change from baseline” value (Week 24, All CVC)?
Answer: The value was −0.47.

Question: And the “Fasting triglycerides, mean change from baseline” value (Week 24, All CVC)?
Answer: The value was -10 mg/dL.

Question: What about the “HOMA-IR, mean change from baseline” value (Week 24, All CVC) of the same compound?
Answer: The value was −1.27.

Question: And the “HbA1c, mean change from baseline” value (Week 24, All CVC)?
Answer: The value was −0.01 % Hb.

Question: What about the “Fasting HDL, mean change from baseline” value (Week 48, All CVC) of the same compound?
Answer: The value was 11.94 mg/dL.

Question: And the “Fasting LDL, mean change from baseline” value (Week 48, All CVC)?
Answer: Its value is 11.19 mg/dL.

Question: And the “Fasting total cholesterol, mean change from baseline” value (Week 48, All CVC)?
Answer: The value was 26 mg/dL.

Question: What about the “Fasting total cholesterol/HDL ratio, mean change from baseline” value (Week 48, All CVC) of the same compound?
Answer: The value was −0.35.

Question: And the “Fasting triglycerides, mean change from baseline” value (Week 48, All CVC)?
Answer: The value was 14 mg/dL.

Question: What about the “HOMA-IR, mean change from baseline” value (Week 48, All CVC) of the same compound?
Answer: The value was −0.12.

Question: And the “HbA1c, mean change from baseline” value (Week 48, All CVC)?
Answer: The value was −0.08 % Hb.

Question: What about the “Change in fasting cholesterol (total, LDL, HDL) during treatment” value (through Week 48) of the same compound?
Answer: Its value is “increases were observed”.

— patent US20180110754A1, “CENICRIVIROC FOR THE TREATMENT OF FIBROSIS” (Tobira Therapeutics, Inc., priority 2015, published 2018)
